Experimental data from paper PMC8504695, “Structure-Based Virtual Screening and Identification of Potential Inhibitors of SARS-CoV-2 S-RBD and ACE2 Interaction” (Frontiers in Chemistry, 2021).

Experiments:
[1] = molecular target: SARS-CoV-2 S-RBD/ACE2 interaction (UniProt P0DTC2+Q9BYF1); assay: cell-based; parameters: species or system SARS-CoV-2 / human; conditions: for IC50: HEK293 cells, 3 h incubation, n = 3, read-out: IC50 NanoBiT (inhibition of SARS-CoV-2 S-RBD/ACE2 interaction); for inhibition at 20 µM / inhibition at 50 µM: HEK293
NanoLuc luciferase = NanoLuc luciferase (Oplophorus gracilirostris, UniProt Q9GV45, A31E/A60N/A81I/F95D/I117V/K70R/L54V/L99Q/M102K/N193R/P142E/Q151K/Q38R/Q45L/V71I/Y165I); assay: cell-based; conditions: read-out: IC50 NanoLuc (inhibition of NanoLuc luciferase)
SARS-CoV-2-S pseudovirus = assay: microbe, parasite or virus in culture; type: cell-based; conditions: for IC50: Pseudovirus, HEK-293T, read-out: IC50 of Anti-SARS-CoV-2-S pseudovirus; for %I, SARS-CoV-2-S pseudovirus inhibition ratio at MNCC: fitted from the inhibition curve
human ACE2 = human ACE2 (Homo sapiens, UniProt Q9BYF1); assay: SPR binding assay, immobilized ACE2 (BIAcore T200); conditions: for Binding to human ACE2 by SPR (in words): up to 100,000 nM analyte; for Kd: immobilized ACE2, PBS pH 7.4, 25°C
Protocol: A BIAcore T200 instrument (GE Healthcare Life Sciences, United States) was used to evaluate the binding affinity of the test compounds to human ACE2 or SARS-CoV-2 S-RBD as previously described ([Li et al., 2017]). Briefly, both proteins were respectively immobilized on the different channels of CM5 sensor chip by a standard amine-coupling approach at a flow rate of 10 μL/min in 10 mM sodium acetate buffer (pH 4.0). The sensor surface was activated with a 7 min injection of the mixture of 50 mM N-hydroxysuccinimide (NHS) and 200 mM 1-ethyl-3-(3-dimethylaminopropyl) carbodiimide (EDC). Then 10 μg/ml of human ACE2 or 50 μg/ml of SARS-CoV-2 S-RBD was injected for 420 s and the surface was blocked with 1 M ethanolamine, pH 8.5. Series concentrations of the test compounds were injected into the flow system at a flow rate of 30 μL/min for 90 s, and the dissociation was 120 s. All binding analysis was performed in phosphate buffered saline (PBS) with 0.05% (v/v) Tween-20 and 1% DMSO (pH 7.4) at 25°C. Prior to analysis, double reference subtractions and solvent corrections were made to eliminate bulk refractive index changes, injection noise, and data drift. The binding affinity was determined by fitting to a Langmuir 1:1 binding model within the BIAcore Evaluation software (GE Healthcare Life Sciences, United States).

SARS-CoV-2 S-RBD = SARS-CoV-2 S-RBD (Severe acute respiratory syndrome coronavirus 2, UniProt P0DTC2); assay: SPR binding assay, immobilized S-RBD (BIAcore T200); conditions: for Binding to SARS-CoV-2 S-RBD by SPR (in words): up to 100,000 nM analyte; for Kd: immobilized S-RBD, PBS pH 7.4, 25°C
HEK293 cells = conditions: human
[2] = system: ACE2-expressing HEK293T cells; conditions: concentration required to retain cell viability by 90%
in vitro = conditions: human
SARS-CoV-2 pseudovirus = conditions: cited from earlier work

NanoLuc luciferase, sequence (Q9GV45 other isoform, or with tags, fused parts or gaps with the stated changes): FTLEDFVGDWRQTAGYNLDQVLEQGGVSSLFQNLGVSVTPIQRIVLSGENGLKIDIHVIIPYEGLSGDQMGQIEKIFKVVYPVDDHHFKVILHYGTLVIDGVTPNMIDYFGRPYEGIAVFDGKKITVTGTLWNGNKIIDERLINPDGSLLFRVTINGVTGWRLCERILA
SARS-CoV-2 S-RBD/ACE2 interaction, sequence (Q9BYF1 19-615 limits assumed, other chains not shown): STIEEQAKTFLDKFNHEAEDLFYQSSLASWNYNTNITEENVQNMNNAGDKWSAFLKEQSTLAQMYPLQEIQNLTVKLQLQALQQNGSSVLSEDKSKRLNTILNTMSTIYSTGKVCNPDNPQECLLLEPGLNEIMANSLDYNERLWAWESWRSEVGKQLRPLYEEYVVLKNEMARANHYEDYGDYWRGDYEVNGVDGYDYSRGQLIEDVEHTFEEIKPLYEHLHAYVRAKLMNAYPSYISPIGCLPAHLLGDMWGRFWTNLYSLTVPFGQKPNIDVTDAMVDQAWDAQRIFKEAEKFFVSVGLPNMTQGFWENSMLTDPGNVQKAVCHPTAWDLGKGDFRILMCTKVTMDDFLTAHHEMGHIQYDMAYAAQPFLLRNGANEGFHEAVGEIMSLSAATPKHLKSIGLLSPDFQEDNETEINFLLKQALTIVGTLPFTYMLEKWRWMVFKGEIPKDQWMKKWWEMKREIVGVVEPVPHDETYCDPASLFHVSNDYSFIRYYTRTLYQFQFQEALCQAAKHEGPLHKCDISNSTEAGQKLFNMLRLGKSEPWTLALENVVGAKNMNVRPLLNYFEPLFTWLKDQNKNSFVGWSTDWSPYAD
human ACE2, sequence (Q9BYF1 18-805): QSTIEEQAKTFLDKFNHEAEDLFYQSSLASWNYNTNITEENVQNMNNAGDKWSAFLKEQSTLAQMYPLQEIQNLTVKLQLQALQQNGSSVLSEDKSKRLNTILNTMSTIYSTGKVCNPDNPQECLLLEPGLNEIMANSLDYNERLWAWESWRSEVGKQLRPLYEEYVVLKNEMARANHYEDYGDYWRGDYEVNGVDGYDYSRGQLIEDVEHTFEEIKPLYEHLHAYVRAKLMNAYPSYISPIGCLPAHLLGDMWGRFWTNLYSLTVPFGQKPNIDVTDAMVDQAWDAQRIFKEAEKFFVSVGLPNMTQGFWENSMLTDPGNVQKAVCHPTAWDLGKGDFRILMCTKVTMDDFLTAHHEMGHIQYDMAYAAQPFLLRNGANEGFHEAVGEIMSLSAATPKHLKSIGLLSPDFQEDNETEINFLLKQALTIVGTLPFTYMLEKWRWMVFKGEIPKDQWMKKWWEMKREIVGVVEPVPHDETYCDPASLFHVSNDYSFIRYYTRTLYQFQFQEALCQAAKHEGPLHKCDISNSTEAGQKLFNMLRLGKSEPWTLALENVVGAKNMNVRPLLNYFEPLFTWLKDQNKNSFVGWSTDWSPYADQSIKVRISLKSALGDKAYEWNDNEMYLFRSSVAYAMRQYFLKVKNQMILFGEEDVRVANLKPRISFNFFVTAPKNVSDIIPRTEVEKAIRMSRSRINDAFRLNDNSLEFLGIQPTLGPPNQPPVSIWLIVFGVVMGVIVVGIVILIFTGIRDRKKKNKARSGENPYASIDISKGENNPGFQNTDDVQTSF

Q: Which IC50 [1] does the source give for COc1ccc(C(=O)C[C@]2(O)C(=O)N(CCOc3ccccc3OC)c3ccccc32)c(OC)c1 [DC-RA076] here?
A: Its IC50 is 75.6 µM.

Q: And the IC50 (NanoLuc luciferase)?
A: The IC50 was > 100 µM.

Q: And the “SI, selectivity index” value (SARS-CoV-2-S pseudovirus)?
A: Its value is 2.95.

Q: What about the IC50 (SARS-CoV-2-S pseudovirus) of the same compound?
A: The IC50 was 8.37 µM.

Q: What about the “%I, SARS-CoV-2-S pseudovirus inhibition ratio at MNCC” value (SARS-CoV-2-S pseudovirus) of the same compound?
A: The value was 5.75%.

Q: And the “Binding to human ACE2 by SPR (in words)” value (human ACE2)?
A: Its value is “no binding”.

Q: And the “Binding to SARS-CoV-2 S-RBD by SPR (in words)” value (“Binding to SARS-CoV-2 S-RBD” for short) (SARS-CoV-2 S-RBD)?
A: Its value is “no binding”.

Q: What about the “CC50 / IC50 Cytotox (HEK293 cell proliferation)” value (“CC50 / IC50 Cytotox” below) (HEK293 cells) of the same compound?
A: Its value is > 100.00 µM.

Q: And the “MNCC, maximum non-cytotoxic concentration” value [2]?
A: The value was 2.64 µM.

Q: What about the CC50 (in vitro) of the same compound?
A: Its CC50 is 24.7 µM.

Q: Which inhibition at 20 µM [1] does the source give for O=C(N/N=C/c1cc([N+](=O)[O-])ccc1Cl)c1ccc(O)cc1O [DC-RA016-6] here?
A: The inhibition at 20 µM was 1.9%.

Q: What about the inhibition at 50 µM [1] of the same compound?
A: The inhibition at 50 µM was 2.9%.

Q: What does the source list for O=C(N/N=C/c1cc([N+](=O)[O-])ccc1Cl)c1ccc(O)cc1 [DC-RA016-7]?
A: inhibition at 20 µM [1]: 10.6%; inhibition at 50 µM [1]: 20.2%

Q: Which IC50 [1] does the source give for CCOc1ccc(N(CC(=O)Nc2ccccc2C(=O)NCc2ccco2)S(=O)(=O)c2ccc(OC)c(OC)c2)cc1 [DC-RA106] here?
A: Its IC50 is 24.7 µM.

Q: And the IC50 (NanoLuc luciferase)?
A: Its IC50 is > 100 µM.

Q: And the “SI, selectivity index” value (SARS-CoV-2-S pseudovirus)?
A: The value was >1.41.

Q: What about the IC50 (SARS-CoV-2-S pseudovirus) of the same compound?
A: Its IC50 is 70.8 µM.

Q: And the “%I, SARS-CoV-2-S pseudovirus inhibition ratio at MNCC” value (SARS-CoV-2-S pseudovirus)?
A: The value was 0.14%.

Q: What about the Kd (human ACE2) of the same compound?
A: Its Kd is > 100 µM.

Q: And the “Binding to human ACE2 by SPR (in words)” value (human ACE2)?
A: Its value is “could bind”.

Q: And the Kd (SARS-CoV-2 S-RBD)?
A: The Kd was > 100 µM.

Q: What about the “Binding to SARS-CoV-2 S-RBD” value (SARS-CoV-2 S-RBD) of the same compound?
A: Its value is “showed binding”.

Q: And the “CC50 / IC50 Cytotox” value (HEK293 cells)?
A: The value was > 100.00 µM.

Q: And the “MNCC, maximum non-cytotoxic concentration” value [2]?
A: Its value is 13.24 µM.

Q: And the CC50 (in vitro)?
A: The CC50 was > 100 µM.

Q: For O=C(N/N=C/c1cc([N+](=O)[O-])ccc1Cl)c1cccc([N+](=O)[O-])c1 [DC-RA016-3], which inhibition at 20 µM [1] is on record?
A: Its inhibition at 20 µM is 1.7%.

Q: And the inhibition at 50 µM [1]?
A: The inhibition at 50 µM was 24.2%.

Q: Which results are given for Cc1cccc(/C=N/NC(=O)c2cc(O)cc(O)c2)c1 [DC-RA016-11]?
A: inhibition at 20 µM [1]: 4.8%; inhibition at 50 µM [1]: 12.7%

Q: With O=C(N/N=C/c1cc([N+](=O)[O-])ccc1Cl)c1ccccc1I [DC-RA016-2] as the compound, how does the inhibition at 20 µM [1] read?
A: Its inhibition at 20 µM is 0.8%.

Q: What about the inhibition at 50 µM [1] of the same compound?
A: Its inhibition at 50 µM is 22.5%.

Q: For COc1cc(-c2nc3ccccc3s2)ccc1OCC(=O)Nc1ccc(C)cc1 [DC-RA087], which IC50 [1] is on record?
A: Its IC50 is 86.2 µM.

Q: What about the IC50 (NanoLuc luciferase) of the same compound?
A: The IC50 was > 100 µM.

Q: What about the “SI, selectivity index” value (SARS-CoV-2-S pseudovirus) of the same compound?
A: The value was >4.75.

Q: What about the IC50 (SARS-CoV-2-S pseudovirus) of the same compound?
A: Its IC50 is 21.1 µM.

Q: And the “%I, SARS-CoV-2-S pseudovirus inhibition ratio at MNCC” value (SARS-CoV-2-S pseudovirus)?
A: The value was 36.74%.

Q: What about the “kd to ACE2 (SPR)” value (human ACE2; immobilized ACE2) of the same compound?
A: The value was 0.3217 s⁻¹.

Q: What about the kon (human ACE2; pH 7.4, immobilized ACE2, read-out: ka to ACE2 (SPR)) of the same compound?
A: The kon was 56.4 M⁻¹ s⁻¹.

Q: What about the “Binding to human ACE2 by SPR (in words)” value (human ACE2) of the same compound?
A: The value was “could bind”.

Q: What about the “Binding to SARS-CoV-2 S-RBD” value (SARS-CoV-2 S-RBD) of the same compound?
A: Its value is “No binding”.

Q: And the “CC50 / IC50 Cytotox” value (HEK293 cells)?
A: Its value is > 100.00 µM.

Q: And the “MNCC, maximum non-cytotoxic concentration” value [2]?
A: The value was 14.01 µM.

Q: And the CC50 (in vitro)?
A: Its CC50 is > 100 µM.

Q: With Cc1ccccc1C(=O)N/N=C/c1cc([N+](=O)[O-])ccc1Cl [DC-RA016-4] as the compound, how does the inhibition at 20 µM [1] read?
A: Its inhibition at 20 µM is -3.8%.

Q: What about the inhibition at 50 µM [1] of the same compound?
A: The inhibition at 50 µM was -24.9%.

Q: What does the source list for O=C(N/N=C/c1cc([N+](=O)[O-])ccc1Cl)c1cccc(Br)c1 [DC-RA016-1]?
A: inhibition at 20 µM [1]: 3.1%; inhibition at 50 µM [1]: 7.4%

Q: Which inhibition at 20 µM [1] does the source give for O=C(N/N=C/c1cc([N+](=O)[O-])ccc1Cl)c1ccc(O)c(O)c1 [DC-RA016-8] here?
A: The inhibition at 20 µM was 6.7%.

Q: What about the inhibition at 50 µM [1] of the same compound?
A: The inhibition at 50 µM was -18.3%.

Q: What does the source list for O=C(N/N=C/c1cc([N+](=O)[O-])ccc1Cl)c1cc(O)cc(O)c1 [DC-RA016]?
A: inhibition at 20 µM [1]: 73.1%; inhibition at 50 µM [1]: 73.1%; IC50 [1]: 26.6 µM; IC50 (NanoLuc luciferase): > 100 µM; SI, selectivity index (SARS-CoV-2-S pseudovirus): >4.46; IC50 (SARS-CoV-2-S pseudovirus): 22.4 µM; %I, SARS-CoV-2-S pseudovirus inhibition ratio at MNCC (SARS-CoV-2-S pseudovirus): 52.08%; Kd (human ACE2): 147 µM; Binding to human ACE2 by SPR (in words) (human ACE2): could bind; Kd (SARS-CoV-2 S-RBD): 85.1 µM; Binding to SARS-CoV-2 S-RBD by SPR (in words) (SARS-CoV-2 S-RBD): showed binding; CC50 / IC50 Cytotox (HEK293 cell proliferation) (HEK293 cells): > 100.00 µM; MNCC, maximum non-cytotoxic concentration [2]: 95.81 µM; CC50 (in vitro): > 100 µM

Q: With O=C(N/N=C/c1cc([N+](=O)[O-])ccc1Cl)c1ccccc1O [DC-RA016-5] as the compound, how does the inhibition at 20 µM [1] read?
A: The inhibition at 20 µM was 8.7%.

Q: What about the inhibition at 50 µM [1] of the same compound?
A: The inhibition at 50 µM was 24.9%.

Q: What does the source list for Cc1ccccc1/C=N/NC(=O)c1cc(O)cc(O)c1 [DC-RA016-10]?
A: inhibition at 20 µM [1]: -6.5%; inhibition at 50 µM [1]: -17.7%

Q: For C=Cc1c(C)c2cc3nc(cc4[nH]c(cc5nc(cc1[nH]2)C(C)=C5CCC(=O)O)c(CCC(=O)OC)c4C)[C@@]1(C)C3=CC=C(C(=O)OC)[C@H]1C(=O)OC [Visudyne], which “Antiviral activity against SARS-CoV-2 pseudovirus (in words)” value (SARS-CoV-2 pseudovirus; cytotoxicity data not reported, ref Fu et al., 2020) is on record?
A: The value was “intense antiviral activity”.

Q: Which inhibition at 20 µM [1] does the source give for O=C(N/N=C/c1ccc(Cl)c([N+](=O)[O-])c1)c1cc(O)cc(O)c1 [DC-RA016-12] here?
A: Its inhibition at 20 µM is 61.3%.

Q: And the inhibition at 50 µM [1]?
A: The inhibition at 50 µM was 88.9%.

Q: And the IC50 [1]?
A: The IC50 was 26.1 µM.

Q: For C[C@@]1(C(=O)O)CC[C@]2(C)CC[C@]3(C)C4=CC(=O)c5c(cc(O)c(O)c5C=O)[C@]4(C)CC[C@@]3(C)[C@@H]2C1 [demethylzeylasteral], which “Inhibitory activity against SARS-CoV-2 pseudovirus” value (SARS-CoV-2 pseudovirus; under nontoxic concentration, ref Zhu et al., 2021) is on record?
A: Its value is “approximately 7%”.

Q: With O=C(N/N=C/c1ccccc1O)c1cc(O)cc(O)c1 [DC-RA016-9] as the compound, how does the inhibition at 20 µM [1] read?
A: The inhibition at 20 µM was 0.6%.

Q: And the inhibition at 50 µM [1]?
A: Its inhibition at 50 µM is 88.6%.

Q: What about the IC50 [1] of the same compound?
A: Its IC50 is 73.8 µM.
